From US10808008B2, “Aromatic-cationic peptides and uses of same” (Cornell University, priority 2012, dated 2020)
Entries after “also recorded” stand apart in the source; their conditions may differ.

Columns and labels:
Assay type in all cases: biochemical
[1] = target: cytochrome c/cardiolipin complex (Equus caballus, UniProt P00004); assay: Soret circular dichroism of cytochrome c with cardiolipin; conditions: 10 μM cytochrome c; for protection against CL-induced disappearance of negative Cotton effect: 30 μg/ml CL, 10 μM peptide, 20 mM HEPES pH 7.5, 25° C.; for loss of the negative Cotton peak at 419 nm caused by cardiolipin: 30 μg/ml cardiolipin, peptide 1:1 with cytochrome c, pH 7.4
Procedure: Circular dichroism (CD) was carried out to examine the effects of the peptides on protecting the heme environment of cytochrome c from the acyl chain of CL. For heme proteins, the Soret CD spectrum is strictly correlated with the heme pocket conformation. In particular, the negative 416-420 nm Cotton effect is considered diagnostic of Fe(III)-Met80 coordination in native cytochrome c (Santucci and Ascoli, 1997). […] CD spectra were obtained using AVIV CD Spectrometer Model 410.
Changes in the Soret CD spectrum of cytochrome c (10 μM) were recorded in the absence (dotted line) and presence (dashed line) of 30 μg/ml CL, plus addition of different peptides (10 μM) (solid line) (FIG. 14). CD measurements were carried out using 20 mM HEPES, pH 7.5, at 25° C. and expressed as molar ellipticity (A) (m Deg). […] Accordingly, aromatic-cationic peptides of the present disclosure are useful for the prevention or treatment of diseases or disorders characterized by dysregulation of cardiolipin and/or cytochrome c, and/or diseases or disorders characterized by dysregulation of the cardiolipin/cytochrome c interaction. In addition, aromatic-cationic peptides of the present disclosure are useful to protect the heme environment of cytochrome c from the acyl chain of cardiolipin.
Circular Dichroism (CD) spectra were collected with an AVIA 62 DS spectrophotometer equipped with a sample temperature controller. CD spectra of the Soret region (370-450 nm) were recorded with 10-mm path length cells containing 20 mM Hepes, pH 7.4, and 10 μM cytochrome c, in the presence or absence of 30 μg/ml cardiolipin and different SS peptide analogs (SS-02, [atn]SS-02, [ald]SS-02, and SS-31). The maximum lipid concentration was kept low to avoid spectral distortions due to excessive light scattering. All measurements were done at 25° C. All spectra were corrected for background, and the final spectrum shown represents the average of at least three experiments.

[2] = target: cardiolipin-cytochrome c complex (Equus caballus, UniProt P00004); assay: Cytochrome c reduction in the presence of cardiolipin; conditions: for rate of cytochrome c reduction in the presence of cardiolipin: 40 μM peptide, 100 μg/ml cardiolipin, 50 μM ascorbate, 10% with cardiolipin alone
Procedure: Reduction of cytochrome c (20 μM) was induced by the addition of glutathione (500 μM) in the absence or presence of CL (100 μg/ml) (FIG. 15A). Reduction of cytochrome c was monitored by absorbance at 550 nm using a 96-well UV-VIS plate reader (Molecular Devices). Addition of CL decreased the rate of cytochrome c reduction by half.
The time course of cytochrome c reduction by ascorbate was recorded at 550 nm and 570 nm using a 96-well plate reader (Molecular Devices, Sunnyvale, Calif.). For all reactions, cytochrome c was preincubated with cardiolipin in the presence or absence of SS peptides for 1 min. […] Ascorbate (50 μM) was added to initiate the reduction of cytochrome c, and the absorbance was recorded for 5 min. The rate of reduction was calculated based on slope of the change in absorbance intensity of 550 nm over 570 nm.

cytochrome c/CL complex = cytochrome c/CL complex (Equus caballus, UniProt P00004); assay: Peroxidase activity of cytochrome c/cardiolipin complex (Amplex Red); conditions: 2 μM cytochrome c; for peroxidation rate of cytochrome c: 10 μM peptide, cardiolipin 100 μg/ml
Description: The six coordination of the heme in cytochrome c prevents direct interaction of H2O2 with the catalytic metal site, and native cytochrome c in solution is a poor peroxidase. Upon interaction with CL, cytochrome c undergoes a structural change with rupture of the Fe-Met80 coordination. […] The mechanism of action of cytochrome c peroxidase is similar to that of other peroxidases, such as horse radish peroxidase (HRP). Thus it is possible to use the amplex red-HRP reaction to investigate cytochrome c peroxidase activity. In the presence of peroxidase, amplex red (AR) reacts with H2O2 to form the red-fluorescent oxidation product, resorufin (Ex/Em=571/585).
Cytochrome c (2 μM) was mixed with CL (25 μg/ml) and 10 μM H2O2 in 20 mM HEPES, pH 7.4. Amplex red (50 μM) was then added and fluorescence emission monitored in real time using Hitachi F4500 fluorescence spectrophotometer. Addition of amplex red elicited rapid increase in fluorescence signal due to resorufin formation, providing direct evidence for peroxidase activity of cytochrome c/CL complex (FIG. 19A).
Assessment of cytochrome c peroxidase activity was achieved using the Amplex® Red assay (Invitrogen/Life Technologies, Carlsbad, Calif.). Amplex® Red is a reagent that reacts with H2O2 in a 1:1 stoichiometry to produce highly fluorescent resorufin (λex/λem=570/585) in the presence of a peroxidase. In this assay, cytochrome c is added in place of horseradish peroxidase. 2 μM cytochrome c was incubated with cardiolipin or cardiolipin-POPC liposomes (10 μg/ml) for 1 min in 20 mM HEPES (pH 7.4) or deionized water prior to the addition of 50 μM Amplex® Red reagent and 10 μM H2O2, and the reaction was allowed to proceed for an additional 5 minutes. The continuous time course data were obtained using Hitachi F-4500 fluorescence spectrophotometer. When comparing the different SS peptide analogs (10 μM) in inhibiting peroxidase activity cytochrome c (2 μM) in the presence of cardiolipin (100 μg/ml), a microplate spectrofluorometer (Molecular Devices, Sunnyvale, Calif.) was used. Horseradish peroxidase (HRP) was used for comparison, and the HRP concentration (0.001 U/ml) was optimized to match the rate of Amplex® Red peroxidation by cardiolipin-cytochrome c complex.

[3] = target: cytochrome c and cardiolipin (Equus caballus, UniProt P00004); assay: Oxidation of ferrous cytochrome c by cardiolipin (A550); conditions: 20 μM cytochrome c reduced by 50 μM ascorbic acid; 100 μg/ml cardiolipin
Procedure: Cytochrome c (20 μM) was reduced by 50 μM ascorbic acid until all available functionally active cytochrome c was reduced. The reduction of cytochrome c was monitored by the appearance of a peak at 550 nm in its absorbance spectrum (Molecular Devices, Sunnyvale, Calif.). […] The rate of oxidation was calculated based on slope of the change in absorbance intensity of 550 nm over 570 nm.

cardiolipin-cytochrome c complex, sequence (P00004 2-105 limits assumed, one chain of several): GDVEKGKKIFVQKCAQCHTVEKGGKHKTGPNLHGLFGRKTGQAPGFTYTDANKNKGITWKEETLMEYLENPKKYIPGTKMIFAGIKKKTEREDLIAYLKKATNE
cytochrome c and cardiolipin, sequence (P00004 2-105 limits assumed): as the sequence (P00004 2-105 limits assumed, one chain of several) above
cytochrome c/cardiolipin complex, sequence (P00004 2-105 limits assumed, one chain of several): as above
cytochrome c/CL complex, sequence (P00004 2-105 limits assumed, one chain of several): as above

## 2′,6′-Dmt-D-Arg-Ald-Lys-NH2 [SS-36]
[1]
  protection against CL-induced disappearance of negative Cotton effect: Protect the Heme Environment of Cytochrome c from the Acyl Chain of CL
  loss of the negative Cotton peak at 419 nm caused by cardiolipin: prevented
[2]; 20 μM cytochrome c
  rate of cytochrome c reduction in the presence of cardiolipin: about 90%
Cytochrome c/CL complex
  peroxidation rate of cytochrome c: about 20 % of control
[3]
  oxidation of cytochrome c by cardiolipin (loss of the 550 nm peak): inhibition of cytochrome c oxidation

## 2′,6′-Dmt-D-Arg-Phe-(atn)Dap-NH2 [SS-19]
[1]
  protection against CL-induced disappearance of negative Cotton effect: Protect the Heme Environment of Cytochrome c from the Acyl Chain of CL
  loss of the negative Cotton peak at 419 nm caused by cardiolipin: prevented
[2]; 20 μM cytochrome c
  rate of cytochrome c reduction in the presence of cardiolipin: about 50%
Cytochrome c/CL complex
  peroxidation rate of cytochrome c: ~75 % of control
[3]
  oxidation of cytochrome c by cardiolipin (loss of the 550 nm peak): inhibition of cytochrome c oxidation

## D-Arg-2′,6′-Dmt-Lys-Phe-NH2 [SS-31]
[1]
  protection against CL-induced disappearance of negative Cotton effect: Protect the Heme Environment of Cytochrome c from the Acyl Chain of CL
  loss of the negative Cotton peak at 419 nm caused by cardiolipin: prevented
[2]; 20 μM cytochrome c, 500 μM glutathione, CL 100 μg/ml, SS-31 20, 40 or 100 μM
  inhibitory action of CL on cytochrome c reduction: dose-dependently prevented the inhibitory action of CL
[2]; 20 μM cytochrome c
  rate of cytochrome c reduction in the presence of cardiolipin: 100%
[2]; 500 μM GSH or 50 μM ascorbate
  inhibitory effect of CL on kinetics of cytochrome c reduction: dose-dependently overcame the inhibitory effect of CL
Cytochrome c/CL complex; CL 25 μg/ml, 10 μM H2O2, 50 μM amplex red
  rate of amplex red peroxidation / kinetics of cytochrome c peroxidase activity: decreased the rate of amplex red peroxidation; also recorded: dose-dependently reduced the kinetics of cytochrome c peroxidase activity
Cytochrome c/CL complex
  peroxidation rate of cytochrome c: ~35 % of control
[3]
  oxidation of cytochrome c by cardiolipin (loss of the 550 nm peak): prevented by the addition of SS-31 in a concentration-dependent manner
